Assay results taken from patent US20240360179A1, “STAPLED PEPTIDES AND METHODS THEREOF” (FOG PHARMACEUTICALS, INC., priority 2021, published 2024).

Key:
[1] = target: T1, beta-catenin/TCF4 interaction (Homo sapiens, UniProt P35222); format: cell-based; conditions: read-out: NanoBRET IC50
T1 construct: host or cells: HEK293
T1 sequence (P35222 1-781): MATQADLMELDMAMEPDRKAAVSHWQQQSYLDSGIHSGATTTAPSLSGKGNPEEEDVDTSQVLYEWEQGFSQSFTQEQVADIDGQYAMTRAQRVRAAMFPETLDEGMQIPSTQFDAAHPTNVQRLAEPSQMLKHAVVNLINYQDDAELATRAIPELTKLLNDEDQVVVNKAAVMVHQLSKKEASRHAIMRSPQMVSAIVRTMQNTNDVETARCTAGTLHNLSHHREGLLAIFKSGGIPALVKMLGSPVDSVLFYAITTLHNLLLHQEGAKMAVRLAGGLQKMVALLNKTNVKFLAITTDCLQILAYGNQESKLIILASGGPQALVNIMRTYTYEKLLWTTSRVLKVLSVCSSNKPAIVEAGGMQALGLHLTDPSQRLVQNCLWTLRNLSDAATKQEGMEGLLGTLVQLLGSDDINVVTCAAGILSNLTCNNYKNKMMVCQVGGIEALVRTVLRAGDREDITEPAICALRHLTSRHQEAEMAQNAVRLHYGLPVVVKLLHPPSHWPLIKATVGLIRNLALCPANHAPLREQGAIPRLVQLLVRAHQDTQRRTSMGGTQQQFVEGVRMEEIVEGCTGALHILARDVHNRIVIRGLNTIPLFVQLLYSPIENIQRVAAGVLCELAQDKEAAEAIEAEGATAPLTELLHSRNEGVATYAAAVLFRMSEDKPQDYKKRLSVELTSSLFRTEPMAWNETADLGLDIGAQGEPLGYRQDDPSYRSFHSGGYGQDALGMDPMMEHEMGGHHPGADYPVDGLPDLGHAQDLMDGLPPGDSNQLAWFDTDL

[2] = test system: Wnt/beta-catenin pathway in COLO320DM tumors; assay: Tumor RNA-sequencing and GSEA in COLO320DM tumors; format: in vivo, mice; conditions: 48-hr post-dose, i.p. 30 mg/kg
Text: It is noted that both negatively and positively enriched gene sets were observed. Among other things, the present disclosure provides technologies for assessing efficacy of a method, e.g., a treatment, comprising assessing expression of one or more negatively and/or positively enriched genes. In some embodiments, if expression profiles of one or more genes are negatively and/or positively enriched as identified herein, a method may be considered to have efficacy, and/or administration (e.g., of provided technologies such as stapled peptides, compositions, etc.) to a subject can continue. […]
RNAseq Data Analysis. In some embodiments, sequence reads were trimmed to remove possible adapter sequences and nucleotides with poor quality using Trimmomatic v.0.39. The trimmed reads were mapped to the Homo sapiens GRCh38 reference genome available on ENSEMBL using the STAR aligner v.2.7.7a. For grafted tumor samples, host reads were removed with XenofilteR. Unique gene hit counts were calculated by using featureCounts from the R Subread package v.2.4.2. Read filtering, normalization, and differentially expression analysis was performed with the edgeR package v.4.0.2 in R. Genes with an adjusted p-value <0.01 and absolute log 2 fold change >1 were called as differentially expressed genes for each comparison. […]
RNAseq Preparation. […] On average over 60 million 2×150 base pair reads were produced per sample. […]

**Q.** With “Ac-PL3-Glu-Npg-B5-Glu-3COOHF-Aib-Ala-Phe-Lys*3-PyrS2-3Thi-BztA-GlnR*3-Ala-NH2 [I-470]” as the substance, how does the IC50 [1] read?
**A.** > 20 µM

**Q.** What about the concentration in tumors [2] of the same substance?
**A.** 5181 ng/gram
